# Tests used:
# [1] = test system: CT26.CL25 colon cancer tumor endothelial cells; experiment: Colon CT26 ex vivo model of tumor angiogenesis; format: cell-based, mouse
# Method: An ex vivo tumor angiogenesis model was developed to test the efficacy of anti-cancer candidate agents. The following protocol describes the Ex Vivo Tumor Angiogenesis Model.
# • 1. The day before the experiment, all necessary tools were sprayed with 70% ethanol and sterilized under UV light overnight, including blade, dissecting and micro-dissecting scissors and […]. 24-well dishes were placed at 4° C. to pre-chill plates and Matrigel was thawed, 24 hours before tumor dissection. • 2. 70% ethanol was sprayed on working bench. Two sterile petri dishes were prepared with 10 ml sterile PBS. The following steps 3 and 4 are necessary for mouse tumor models. For fresh human tumor, steps 3 and 4 are skipped. • 3. The tumor-bearing mice were euthanized. 70% ethanol was sprayed on the mouse and the tumor was removed using sterilized dissecting tools (avoid the fur). The tumor was rinsed in petri dish with sterile PBS to remove ethanol and fur. The tumor was transferred to a new petri dish with PBS for dissection. The dish is placed on ice. • 4. Pre-chilled sterile pipet tips were used to seed regular Matrigel in 24 well plates on ice. Matrigel (30 μl) was dropped in the middle of each well without touching the edge of the well (avoid introducing bubbles if possible). • 5. The tumor was cut in halves using the sterile blade. Healthy tumor tissue that is not necrotic and is within the tumor capsule was identified and isolated. The healthy tumor tissue was cut into small pieces. For instance, a suitable size for the tumor tissue is 0.5 mm (H)×0.5 mm (L)×0.3 mm (D) with a total volume of 0.075 mm^3. • 6. Each tumor piece was gently transferred and embedded in the Matrigel drop in the 24-well plate. The embedded piece was placed in the bottom and middle of each Matrigel drop. The plate was kept on ice all the time. • 7. After seeding the tumor pieces, plates were incubated in a 37° C. cell culture incubator without medium for 10 minutes in order for the Matrigel to solidify. • 8. Endothelial Growth Medium (0.5 ml) was added to each well and incubated at 37° C. with 5% CO2. Treatment was not added until the new endothelial cells was grown out of the tumor or were larger than 3 mm in diameter. This usually takes 4 days for the LL2 Lewis lung cancer model and 7 days for the CT26 colon cancer model. For human tumor models, the growth time is typically 2-3 weeks, depending on the tumor type. Media was changed every 4 days during prolonged culture. Typically, when the tumor tissue grows to 2 mm in diameter, it was good for drug testing. A size of about 3 mm in diameter can make visualization easier. • 9. When the assay was ready to be analyzed for cell death (e.g., 48 hours after drug addition), the dye mixture was prepared by mixing 6 μl of green dye to stain live cells (5 mg/ml Fluorescein diacetate or FDA in DMSO) with 30 μl of red dye (2.5 mg/ml Propidium iodide or PI in PBS) to stain dead cells in an Eppendorf tube. The FDA dye needs to be stored frozen in a −20° C. freezer because it has a labile ester bond. • 10. 1 μl of the dye mixture was added to each well of the 24-well dish. It is usually preferred to do one 24-well dish at a time given the amount of time needed to take pictures (the green dye is not as stable in the cells in the long term). • 11. The dish was gently rocked a few times to mix the dye with the media in the wells and incubate the dish at 37° C. for 10 min (too long incubation can make the green signal too intense). • 12. Each well was washed with 0.5 ml of sterile PBS and then 0.5 ml of phenol red free SFM was added to each well. Alternatively 0.5 ml of regular Endothelial Cell Growth Media can be added to each well if this well needs to be continuously maintained after the experiment. • 13. An inverted microscope using the 2× objective lens was used to observe morphological changes in the experimental wells. • 14. […]
# [2] = test system: LL/2 lung cancer tumor endothelial cells; experiment: Lung LL2 ex vivo model of tumor angiogenesis; format: cell-based, mouse; conditions: for 48 hrs (morphology observations): LL/2 tumor endothelial cells; for Cell death: drug treatment for two days, ratio of red area to total endothelial cell area; for cytotoxicity at 20 µM / cytotoxicity at 40 µM: Mus musculus, Endothelial cell, 48 h, read-out: Cell death
# In short: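 Live/dead imaging with FDA and PI, taken e.g. 48 h post-drug under fixed channel settings, measures treatment effects on endothelial cells sprouting from Lewis lung tumor explants. Explants were seeded in Matrigel drops and grown ~4 days in endothelial growth medium, 37 °C, 5% CO2, before dosing.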
# [3] = Mus musculus, Endothelial cell, 48 h, read-out: Cell death
SMILES,48 hrs (morphology observations after 48 hours) ([1]; Conc. 40 μm),"cytotoxicity at 40 µM [1, 3]",48 hrs (morphology observations) ([2]; 20 μm),Cell death ([2]; 20 μm),Cell death ([2]; 40 μm),48 hrs (morphology observations after 48 hours) ([1]; Conc. 20 μm),"cytotoxicity at 20 µM [1, 3]",cytotoxicity at 20 µM [2],48 hrs (morphology observations) ([2]; 40 μm),cytotoxicity at 40 µM [2]
CCCCOc1ccc(S(=O)(=O)c2cnc3ccc(SC)cc3c2N2CCCN(CCN3CCCCC3)CC2)cc1 [Compound 206],**** (100% of endothelial cells vesicularize in cell shape and look flattened in morphology (indicating disintegration of the cell body)),100%,0,30%,,,,,,
COc1ccc(S(=O)(=O)c2cnc3ccc([N+](=O)[O-])cc3c2NN2CCN(C)CC2)cc1 [Compound 94],0,0%,,,20%,,,,,
O=[N+]([O-])c1ccc(S(=O)(=O)c2cnc3ccc(OC(F)(F)F)cc3c2N2CCC(N3CCCCC3)CC2)cc1 [Compound 59],0,50%,,,40%,,,,,
COc1ccc(S(=O)(=O)c2cnc3ccc(SC)cc3c2N2CCC(N3CCCCC3)CC2)cc1OC [Compound 121],*** (100% of endothelial cells vesicularize in cell shape),40%,,,50%,,,,,
CCc1ccc(S(=O)(=O)c2cnc3ccc(OC(F)(F)F)cc3c2-n2ccnn2)cc1 [Compound 110],** (more than 50% but less than 100% of endothelial cells vesicularize in cell shape),10%,*** (more than 50% but less than 100% of endothelial cells vesicularize in cell shape),95%,,,,,,
CCc1ccc(S(=O)(=O)c2cnc3ccc(OC(F)(F)F)cc3c2-n2cnc(C)c2)cc1 [Compound 117],,,*** (more than 50% but less than 100% of endothelial cells vesicularize in cell shape),,,*** (100% of endothelial cells vesicularize in cell shape),100%,100%,,
CCc1ccc(S(=O)(=O)c2cnc3ccc(OC(F)(F)F)cc3c2NCCO)cc1 [Compound 95],0,0%,,,10%,,,,,
CCc1ccc(S(=O)(=O)c2cnc3ccc(OC(F)(F)F)cc3c2N2CCC(N3CCC(O)CC3)CC2)cc1 [Compound 102],0,5%,0,,,,,20%,,
CCc1ccc(S(=O)(=O)c2cnc3ccc(OC(F)(F)F)cc3c2N(C)Cc2ccccc2)cc1 [Compound 49],0,10%,,,30%,,,,,
CCOC(=O)c1ccc2ncc(S(=O)(=O)c3ccc(CC)cc3)c(N3CCC(O)CC3)c2c1 [Compound 62],** (more than 50% but less than 100% of endothelial cells vesicularize in cell shape),70%,,,30%,,,,*** (more than 50% but less than 100% of endothelial cells vesicularize in cell shape),
CCCCOc1ccc(S(=O)(=O)c2cnc3ccc(C(=O)NC(C)C)cc3c2N2CCCN(C)CC2)cc1 [Compound 192],0,10%,,,60%,,,,*** (more than 50% but less than 100% of endothelial cells vesicularize in cell shape),
CCc1ccc(S(=O)(=O)c2cnc3ccc(OC(F)(F)F)cc3c2N2CCN(c3ccc(C#N)cc3)CC2)cc1 [Compound 45],0,0%,,,,,,,,10%
COc1ccc(S(=O)(=O)c2cnc3ccc(SC)cc3c2N2CCCN(C)CC2)cc1OC [Compound 154],* (50% or less of cells vesicularize in cell shape),30%,,,,,,,* (50% or less of cells vesicularize in cell shape),30%
CCc1ccc(S(=O)(=O)c2cnc3ccc(OC(F)(F)F)cc3c2N2CCC(CO)CC2)cc1 [Compound 48],0,10%,,,60%,,,,,

# — patent US20250230226A1, “PLXDC1/PLXDC2 ACTIVATORS AND THEIR USE IN THE TREATMENT OF BLOOD VESSEL DISORDERS” (THE REGENTS OF THE UNIVERSITY OF CALIFORNIA, priority 2019, published 2025)
